According to PubChem BioAssay (NCI):
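Briefly, cells in 96-well plates were exposed to five compound concentrations for 48 h, and endpoints were estimated by linear interpolation. TGI marks complete inhibition of growth.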

Key:
Assay in all cases: growth of human tumour cells (NCI), 48 h
SW-620 colon = test system: SW-620 colon
NCI-H522 lung = test system: NCI-H522 lung
EKVX NSCLC = test system: EKVX NSCLC
SN12C renal = test system: SN12C renal
RPMI-8226 leukemia = test system: RPMI-8226 leukemia
IGROV1 ovarian = test system: IGROV1 ovarian
SF-268 CNS = test system: SF-268 CNS
U251 CNS = test system: U251 CNS
SK-OV-3 ovarian = test system: SK-OV-3 ovarian
NCI-H460 lung = test system: NCI-H460 lung
786-0 renal = test system: 786-0 renal
M14 melanoma = test system: M14 melanoma
UACC-257 melanoma = test system: UACC-257 melanoma
RXF 393 renal = test system: RXF 393 renal
UACC-62 melanoma = test system: UACC-62 melanoma
MDA-MB-435 = test system: MDA-MB-435
HS 578T breast = test system: HS 578T breast
HCT-116 colon = test system: HCT-116 colon
BT-549 breast = test system: BT-549 breast
A498 renal = test system: A498 renal
HCT-15 colon = test system: HCT-15 colon
MOLT-4 leukemia = test system: MOLT-4 leukemia
SF-539 CNS = test system: SF-539 CNS
OVCAR-8 ovarian = test system: OVCAR-8 ovarian
CAKI-1 renal = test system: CAKI-1 renal
HL-60(TB) leukemia = test system: HL-60(TB) leukemia
PC-3 prostate = test system: PC-3 prostate
SNB-19 CNS = test system: SNB-19 CNS
HOP-62 NSCLC = test system: HOP-62 NSCLC
SK-MEL-28 melanoma = test system: SK-MEL-28 melanoma
SNB-75 CNS = test system: SNB-75 CNS
ACHN renal = test system: ACHN renal
OVCAR-5 ovarian = test system: OVCAR-5 ovarian
SK-MEL-5 melanoma = test system: SK-MEL-5 melanoma
OVCAR-4 ovarian = test system: OVCAR-4 ovarian
MDA-N = test system: MDA-N
DU-145 prostate = test system: DU-145 prostate
COLO 205 colon = test system: COLO 205 colon
A549 NSCLC = test system: A549 NSCLC
HOP-92 NSCLC = test system: HOP-92 NSCLC
NCI/ADR-RES ovarian = test system: NCI/ADR-RES ovarian
NCI-H226 lung = test system: NCI-H226 lung
TK-10 renal = test system: TK-10 renal
MDA-MB-231 breast = test system: MDA-MB-231 breast
K-562 leukemia = test system: K-562 leukemia
HCC-2998 colon = test system: HCC-2998 colon
KM12 colon = test system: KM12 colon
SF-295 CNS = test system: SF-295 CNS
LOX IMVI melanoma = test system: LOX IMVI melanoma
SK-MEL-2 melanoma = test system: SK-MEL-2 melanoma
MCF7 breast = test system: MCF7 breast
UO-31 renal = test system: UO-31 renal
OVCAR-3 ovarian = test system: OVCAR-3 ovarian
NCI-H23 lung = test system: NCI-H23 lung
T-47D breast = test system: T-47D breast
HT29 colon = test system: HT29 colon
SR leukemia = test system: SR leukemia
CCRF-CEM leukemia = test system: CCRF-CEM leukemia
MALME-3M melanoma = test system: MALME-3M melanoma

C1CSCCSCCSCCSCCS1
TGI (SW-620 colon): > 100 µM
TGI (NCI-H522 lung): > 100 µM
TGI (EKVX NSCLC): > 100 µM
TGI (SN12C renal): > 100 µM
TGI (RPMI-8226 leukemia): > 100 µM
TGI (IGROV1 ovarian): > 100 µM
TGI (SF-268 CNS): > 100 µM
TGI (U251 CNS): > 100 µM
TGI (SK-OV-3 ovarian): > 100 µM
TGI (NCI-H460 lung): > 100 µM
TGI (786-0 renal): > 100 µM
TGI (M14 melanoma): > 100 µM
TGI (UACC-257 melanoma): > 100 µM
TGI (RXF 393 renal): > 100 µM
TGI (UACC-62 melanoma): > 100 µM
TGI (MDA-MB-435): > 100 µM
TGI (HS 578T breast): > 100 µM
TGI (HCT-116 colon): > 100 µM
TGI (BT-549 breast): > 100 µM
TGI (A498 renal): > 100 µM
TGI (HCT-15 colon): > 100 µM
TGI (MOLT-4 leukemia): > 100 µM
TGI (SF-539 CNS): > 100 µM
TGI (OVCAR-8 ovarian): > 100 µM
TGI (CAKI-1 renal): > 100 µM
TGI (HL-60(TB) leukemia): > 100 µM
TGI (PC-3 prostate): > 100 µM
TGI (SNB-19 CNS): > 100 µM
TGI (HOP-62 NSCLC): > 100 µM
TGI (SK-MEL-28 melanoma): > 100 µM
TGI (SNB-75 CNS): > 100 µM
TGI (ACHN renal): > 100 µM
TGI (OVCAR-5 ovarian): > 100 µM
TGI (SK-MEL-5 melanoma): > 100 µM
TGI (OVCAR-4 ovarian): > 100 µM
TGI (MDA-N): > 100 µM
TGI (DU-145 prostate): > 100 µM
TGI (COLO 205 colon): > 100 µM
TGI (A549 NSCLC): > 100 µM
TGI (HOP-92 NSCLC): > 100 µM
TGI (NCI/ADR-RES ovarian): > 100 µM
TGI (NCI-H226 lung): > 100 µM
TGI (TK-10 renal): > 100 µM
TGI (MDA-MB-231 breast): > 100 µM
TGI (K-562 leukemia): > 100 µM
TGI (HCC-2998 colon): > 100 µM
TGI (KM12 colon): > 100 µM
TGI (SF-295 CNS): > 100 µM
TGI (LOX IMVI melanoma): > 100 µM
TGI (SK-MEL-2 melanoma): > 100 µM
TGI (MCF7 breast): > 100 µM
TGI (UO-31 renal): > 100 µM
TGI (OVCAR-3 ovarian): > 100 µM
TGI (NCI-H23 lung): > 100 µM
TGI (T-47D breast): > 100 µM
TGI (HT29 colon): > 100 µM

NC1=NC(c2ccc(Cl)cc2)=CC(c2cccc(Cl)c2)S1 (stereo unspecified)
TGI (SW-620 colon): > 100 µM
TGI (NCI-H522 lung): 55.8 µM
TGI (EKVX NSCLC): 96.9 µM
TGI (SR leukemia): 72.5 µM
TGI (SN12C renal): 85.2 µM
TGI (RPMI-8226 leukemia): 44 µM
TGI (IGROV1 ovarian): > 100 µM
TGI (SF-268 CNS): > 100 µM
TGI (U251 CNS): 55.5 µM
TGI (CCRF-CEM leukemia): > 100 µM
TGI (SK-OV-3 ovarian): > 100 µM
TGI (NCI-H460 lung): > 100 µM
TGI (786-0 renal): > 100 µM
TGI (M14 melanoma): > 100 µM
TGI (UACC-257 melanoma): 81.7 µM
TGI (RXF 393 renal): 77.1 µM
TGI (UACC-62 melanoma): 51.4 µM
TGI (MDA-MB-435): 38.9 µM
TGI (HS 578T breast): 66.7 µM
TGI (HCT-116 colon): > 100 µM
TGI (BT-549 breast): > 100 µM
TGI (HCT-15 colon): 33.2 µM
TGI (MOLT-4 leukemia): > 100 µM
TGI (SF-539 CNS): > 100 µM
TGI (OVCAR-8 ovarian): > 100 µM
TGI (CAKI-1 renal): 92.5 µM
TGI (HL-60(TB) leukemia): > 100 µM
TGI (PC-3 prostate): > 100 µM
TGI (SNB-19 CNS): 44.9 µM
TGI (HOP-62 NSCLC): > 100 µM
TGI (ACHN renal): 59.9 µM
TGI (OVCAR-5 ovarian): > 100 µM
TGI (SK-MEL-5 melanoma): 80.7 µM
TGI (MALME-3M melanoma): > 100 µM
TGI (OVCAR-4 ovarian): 60.5 µM
TGI (MDA-N): 52.9 µM
TGI (DU-145 prostate): > 100 µM
TGI (COLO 205 colon): 33.1 µM
TGI (A549 NSCLC): 87.2 µM
TGI (HOP-92 NSCLC): 60.1 µM
TGI (NCI/ADR-RES ovarian): > 100 µM
TGI (NCI-H226 lung): 71.9 µM
TGI (TK-10 renal): 60.7 µM
TGI (K-562 leukemia): > 100 µM
TGI (HCC-2998 colon): 80.9 µM
TGI (KM12 colon): > 100 µM
TGI (SF-295 CNS): > 100 µM
TGI (LOX IMVI melanoma): 99.1 µM
TGI (SK-MEL-2 melanoma): 55.5 µM
TGI (MCF7 breast): > 100 µM
TGI (UO-31 renal): 84.6 µM
TGI (OVCAR-3 ovarian): > 100 µM
TGI (NCI-H23 lung): > 100 µM
TGI (T-47D breast): > 100 µM
TGI (HT29 colon): > 100 µM
